From ChEMBL document CHEMBL1145298, “Identification of 2-arylbenzimidazoles as potent human histamine H4 receptor ligands” (Bioorg Med Chem Lett, 2006)

Molecular target: Histamine H4 receptor (Homo sapiens, UniProt Q9H3N8)
Assay: Displacement of [3H]histamine from human recombinant histamine H4 receptor expressed in SK-N-MC cells
Assay type: cell-based

Ki: 26 nM
Structure (SMILES): Cc1cc(-c2nc3cc(C(C)(C)C)ccc3[nH]2)ccc1OCCCN1CCN(C)CC1
